Data published in patent publication US20240159780A1, “PREDICTION OF AMOUNT OF IN VIVO DOPAMINE ETC., AND APPLICATION THEREOF” (Sumitomo Pharma Co., Ltd., priority 2021, published 2024).
“Also recorded” adds a separate entry of the source.

Key:
[1] = test system: MPTP-induced PD-LID model rhesus monkeys; assay: Number of blinks (eye tracking) after L-DOPA in MPTP-induced PD-LID model rhesus monkeys; assay type: in vivo, rhesus monkey
[2] = test system: MPTP-induced PD-LID model rhesus monkeys; assay: Dyskinesia score and generalized dyskinesia score in MPTP-induced PD-LID model rhesus monkeys; assay type: in vivo, rhesus monkey
[3] = test system: PD-LID model rats; assay: Striatal dopamine release by microdialysis in PD-LID model rats; assay type: in vivo, rat; conditions: levodopa i.p.
Experimental: As a representative experimental model for Parkinson's disease, a rat striatal dopaminergic neuron destruction model is known in which 6-hydroxydopamine (hereinafter sometimes referred to as “6-OHDA”) is locally administered to one side of the brain (6-OHDA unilateral treated rat (6-OHDA injured rat)). Male Wistar rats (12 weeks old, Japan SLC, Inc.) were used to prepare model animals. Desipramine hydrochloride (25 mg/kg; Wako Pure Chemical Industries, Ltd.) was intraperitoneally administered, and 30 minutes after the administration, inhalation anesthesia with isoflurane was performed using a general anesthesia machine for experimental animals. Under isoflurane anesthesia, the rat was fixed in a stereotaxic apparatus, the skin of the head was incised with a surgical scalpel to expose the cranial bone, and the coordinate of bregma, which is the starting point (AP: 0, ML: 0, DV: 0), was confirmed, and the coordinate of the right medial forebrain bundle (AP: −4.4 mm, ML: 1.5 mm, DV: 7.8 mm from bregma) was measured. […]
In order to measure striatal dopamine release, guide cannula implantation into the striatum of PD-LID model rats and chromatography were performed by a method described in a reference (Pharmacol Res Perspect. 2015 June; 3(3): e00142.). […] Using an HPLC-ECD system (EiCOM Co., Ltd.), the amount of dopamine in the collected dialysate was measured. […]

[4] = L-DOPA 22 mg/kg with Benserazide, oral

Row | SMILES | total number of blinks compared to vehicle ([1]; 30 to 120 minutes after administration (60 to 150 minutes after start of measurement), one individual) | time after administration from which the number of blinks increased ([1]; L-DOPA 22 mg/kg with Benserazide 1/4 weight, oral, blinks tallied every 3 minutes) | time of peak of number of blinks with an intermediate duration (0.16≤T<0.18) ([1]; after oral L-DOPA 22 mg/kg, rapid decrease, then gradual increase) | time after administration at which the dyskinesia score increased [2, 4] | time after administration from which the score of generalized dyskinesia declined [2, 4] | time after administration from which the score of generalized dyskinesia increased [2, 4] [min] | time after administration of the peak dyskinesia score [2, 4] [min] | time after administration of the peak score of generalized dyskinesia [2, 4] | decay of the dyskinesia score ([2]; L-DOPA 22 mg/kg with Benserazide, oral, measured for 180 minutes) | rapid changes and temporal decreases in the dopamine amount in the synaptic cleft in the striatum [3] | dyskinesia score ([2]; tandospirone ointment transdermal 19 hours prior to testing, with L-DOPA, vs non-tandospirone administration)
1 | N[C@@H](Cc1ccc(O)c(O)c1)C(=O)O [L-DOPA, (S)-2-amino-3-(3,4-dihydroxyphenyl) propanoic acid] | tended to increase; also recorded: clear tendency to increase | about 30 minutes | around 30 minutes | about 20 minutes | around 150 minutes | 60 | 60 | around 90 minutes | did not decay until 180 minutes | – | –
2 | O=C1[C@@H]2[C@H]3CC[C@H](C3)[C@@H]2C(=O)N1CCCCN1CCN(c2ncccn2)CC1 [tandospirone] | – | – | – | – | – | – | – | – | – | suppresses | decrease
